Measured values taken from US7348427B2, “Antipathogenic benzamide compounds” (Genesoft Pharmaceuticals, Inc., priority 2001, dated 2008).

Columns and labels:
[1] = tested on: Candida albicans (ATCC 38247); assay: Antifungal MIC assay; format: cell-based; conditions: B = C. albicans ATCC 38247
Excerpt: (§1) In vitro biological activity data were collected for a variety of microorganisms, including Bacillus cereus (ATCC 11778), Staphylococcus aureus (ATCC 27660, a methicillin resistant strain (MRSA); ATCC 13709, a methicillin sensitive strain (MSSA)); Streptococcus pneumoniae (ATCC 51422, a penicillin resistant strain (PRSP)), Enterococcus faecium (ATCC 51559, a vancomycin resistant strain (VRE)), and Staphylococcus epidermidis (ATCC 12228). Additionally, antifungal activity data were collected for Candida albicans (ATCC 38247).
(§2) Compounds according to this invention were screened for their in vitro activities against selected species of bacteria and fungi. The minimal inhibition concentration (MIC) of these compounds was determined using the National Committee for Clinical Laboratory Standards (NCCLS) broth microdilution assay in microtiter plates, as set forth in: (1) the guidelines of the National. Committee for Clinical Laboratory Standards (NCCLS) Document M7-A4 (NCCLS, 1997); (2) the guidelines of the National Committee for Clinical Laboratory Standards (NCCLS) Document M11-A4 (NCCLS, 1997); and (3) the guidelines and reference method of the National Committee for Clinical Laboratory Standards (NCCLS) Document M27-T (NCCLS, 1995). For antifungal assays, the method recommended in Murray, P R., 1995 Manual of Clinical Microbiology (ASM Press, Washington, D.C.), was employed.

E. faecalis ATCC 29212 = assay: MIC, NCCLS broth microdilution assay; format: cell-based, Enterococcus faecalis; conditions: C = E. faecalis ATCC 29212
Protocol: as §2

S. pneumoniae ATCC 49619 = assay: MIC, NCCLS broth microdilution assay; format: cell-based, Streptococcus pneumoniae; conditions: H = S. pneumoniae ATCC 49619
Protocol: as §2

[2] = tested on: Staphylococcus aureus (ATCC 27660, a methicillin resistant strain (MRSA)); assay: MIC, NCCLS broth microdilution assay; format: cell-based; conditions: F = S. aureus ATCC 27660
Excerpt: as §1, §2

[3] = tested on: Bacillus cereus (ATCC 11778); assay: MIC, NCCLS broth microdilution assay; format: cell-based; conditions: A = B. cereus ATCC 11778
Excerpt: as §1, §2

[4] = tested on: Staphylococcus aureus (ATCC 13709, a methicillin sensitive strain (MSSA)); assay: MIC, NCCLS broth microdilution assay; format: cell-based; conditions: E = S. aureus ATCC 13709
Excerpt: as §1, §2

SMILES | Minimum Inhibitory Concentration (MIC) [1] | Minimum Inhibitory Concentration (MIC) (E. faecalis ATCC 29212) | Minimum Inhibitory Concentration (MIC) (S. pneumoniae ATCC 49619) | Minimum Inhibitory Concentration (MIC) [2] | Minimum Inhibitory Concentration (MIC) [3] | Minimum Inhibitory Concentration (MIC) [4]
Cn1cc(NC(=O)c2cc(NC(=O)c3cc(NC(=O)c4ccc(F)cc4F)cn3C)cn2C)cc1C(=O)NCCN1CCC(O)CC1 [Compound B-19] | >32 µg/mL | +++ (+++ = MIC ≦ 4) | +++ (+++ = MIC ≦ 4) | +++ (+++ = MIC ≦ 4) | +++ (+++ = MIC ≦ 4) | +++ (+++ = MIC ≦ 4)
C[C@@H]1CCC[C@H](C)N1CCNC(=O)c1cc(NC(=O)c2cc(NC(=O)c3cc(NC(=O)c4ccc(F)cc4F)cn3C)cn2C)cn1C [Compound B-20] | >32 µg/mL | + (+ = 12 ≦ MIC ≦ 32) | +++ (+++ = MIC ≦ 4) | ++ (++ = 4 < MIC < 12) | +++ (+++ = MIC ≦ 4) | +++ (+++ = MIC ≦ 4)
Cn1cc(NC(=O)c2cc(NC(=O)c3cc(NC(=O)c4ccc(F)cc4F)cn3C)cn2C)cc1C(=O)NCCN [Compound B-21] | + (+ = 12 ≦ MIC ≦ 32) | ++ (++ = 4 < MIC < 12) | ++ (++ = 4 < MIC < 12) | ++ (++ = 4 < MIC < 12) | + (+ = 12 ≦ MIC ≦ 32) | + (+ = 12 ≦ MIC ≦ 32)
Cn1cc(NC(=O)c2cc(NC(=O)c3cc(NC(=O)c4ccc(F)cc4F)cn3C)cn2C)cc1C(=O)NCCNC(=N)N [Compound B-23] | ++ (++ = 4 < MIC < 12) | +++ (+++ = MIC ≦ 4) | +++ (+++ = MIC ≦ 4) | +++ (+++ = MIC ≦ 4) | +++ (+++ = MIC ≦ 4) | +++ (+++ = MIC ≦ 4)
Cn1cc(NC(=O)c2cc(NC(=O)c3cc(NC(=O)c4ccc(F)cc4F)cn3C)cn2C)cc1C(=O)NCCN(CCO)CCO [Compound B-25] | >32 µg/mL | + (+ = 12 ≦ MIC ≦ 32) | +++ (+++ = MIC ≦ 4) | + (+ = 12 ≦ MIC ≦ 32) | + (+ = 12 ≦ MIC ≦ 32) | + (+ = 12 ≦ MIC ≦ 32)
Cn1cc(NC(=O)c2cc(NC(=O)c3cc(NC(=O)c4ccc(F)cc4F)cn3C)cn2C)cc1C(=O)NCCN1CCNCC1 [Compound B-28] | >32 µg/mL | + (+ = 12 ≦ MIC ≦ 32) | +++ (+++ = MIC ≦ 4) | + (+ = 12 ≦ MIC ≦ 32) | + (+ = 12 ≦ MIC ≦ 32) | + (+ = 12 ≦ MIC ≦ 32)
Cn1cc(NC(=O)c2cc(NC(=O)c3cc(NC(=O)c4ccc(F)cc4F)cn3C)cn2C)cc1C(=O)NCCN1CCC(F)CC1 [Compound B-29] | + (+ = 12 ≦ MIC ≦ 32) | +++ (+++ = MIC ≦ 4) | +++ (+++ = MIC ≦ 4) | +++ (+++ = MIC ≦ 4) | +++ (+++ = MIC ≦ 4) | +++ (+++ = MIC ≦ 4)
Cn1cc(NC(=O)c2cc(NC(=O)c3cc(NC(=O)c4ccc(F)cc4F)cn3C)cn2C)cc1C(=O)NCC[N+]1(C)CCOCC1 [Compound B-30] | + (+ = 12 ≦ MIC ≦ 32) | >32 µg/mL | +++ (+++ = MIC ≦ 4) | +++ (+++ = MIC ≦ 4) | +++ (+++ = MIC ≦ 4) | +++ (+++ = MIC ≦ 4)
Cn1cc(NC(=O)c2cc(NC(=O)c3cc(NC(=O)c4ccc(F)cc4)cn3C)cn2C)cc1C(=O)NCCN1CCOCC1 [Compound B-32] | >32 µg/mL | ++ (++ = 4 < MIC < 12) | ++ (++ = 4 < MIC < 12) | + (+ = 12 ≦ MIC ≦ 32) | + (+ = 12 ≦ MIC ≦ 32) | ++ (++ = 4 < MIC < 12)
Cn1cc(NC(=O)c2cc(NC(=O)c3ccc(F)cc3)cn2C)cc1C(=O)NCCN1CCSCC1 [Compound B-33] | >32 µg/mL | ++ (++ = 4 < MIC < 12) | +++ (+++ = MIC ≦ 4) | + (+ = 12 ≦ MIC ≦ 32) | + (+ = 12 ≦ MIC ≦ 32) | ++ (++ = 4 < MIC < 12)
Cn1cc(NC(=O)c2cc(NC(=O)c3cc(NC(=O)c4ccc(F)cc4)cn3C)cn2C)cc1C(=O)NCCN1CCSCC1 [Compound B-34] | >32 µg/mL | +++ (+++ = MIC ≦ 4) | +++ (+++ = MIC ≦ 4) | +++ (+++ = MIC ≦ 4) | +++ (+++ = MIC ≦ 4) | +++ (+++ = MIC ≦ 4)
Cn1cc(NC(=O)c2cc(NC(=O)c3cc(NC(=O)c4cc(NC(=O)c5ccc(F)cc5)cn4C)cn3C)cn2C)cc1C(=O)NCCN1CCSCC1 [Compound B-35] | >32 µg/mL | +++ (+++ = MIC ≦ 4) | +++ (+++ = MIC ≦ 4) | +++ (+++ = MIC ≦ 4) | +++ (+++ = MIC ≦ 4) | +++ (+++ = MIC ≦ 4)
Cn1cc(NC(=O)c2cc(NC(=O)c3cc(NC(=O)c4cc(NC(=O)c5ccc(F)cc5)cn4C)cn3C)cn2C)cc1C(=O)NCCN1CCOCC1 [Compound B-37] | >32 µg/mL | +++ (+++ = MIC ≦ 4) | +++ (+++ = MIC ≦ 4) | >32 µg/mL | +++ (+++ = MIC ≦ 4) | +++ (+++ = MIC ≦ 4)
Cn1cc(NC(=O)c2cc(NC(=O)c3cc(NC(=O)c4ccccc4F)cn3C)cn2C)cc1C(=O)NCCN1CCOCC1 [Compound B-39] | >32 µg/mL | +++ (+++ = MIC ≦ 4) | +++ (+++ = MIC ≦ 4) | ++ (++ = 4 < MIC < 12) | +++ (+++ = MIC ≦ 4) | +++ (+++ = MIC ≦ 4)
Cn1cc(NC(=O)c2cc(NC(=O)c3ccccc3F)cn2C)cc1C(=O)NCCN1CCSCC1 [Compound B-40] | >32 µg/mL | +++ (+++ = MIC ≦ 4) | +++ (+++ = MIC ≦ 4) | ++ (++ = 4 < MIC < 12) | ++ (++ = 4 < MIC < 12) | ++ (++ = 4 < MIC < 12)
Cn1cc(NC(=O)c2cc(NC(=O)c3cc(NC(=O)c4cc(NC(=O)c5ccccc5F)cn4C)cn3C)cn2C)cc1C(=O)NCCN1CCSCC1 [Compound B-42] | >32 µg/mL | +++ (+++ = MIC ≦ 4) | +++ (+++ = MIC ≦ 4) | +++ (+++ = MIC ≦ 4) | +++ (+++ = MIC ≦ 4) | +++ (+++ = MIC ≦ 4)
Cn1cc(NC(=O)c2cc(NC(=O)c3ccccc3F)cn2C)cc1C(=O)NCCN1CCOCC1 [Compound B-43] | >32 µg/mL | + (+ = 12 ≦ MIC ≦ 32) | + (+ = 12 ≦ MIC ≦ 32) | + (+ = 12 ≦ MIC ≦ 32) | + (+ = 12 ≦ MIC ≦ 32) | + (+ = 12 ≦ MIC ≦ 32)
Cn1cc(NC(=O)c2cc(NC(=O)c3cc(NC(=O)c4cc(NC(=O)c5ccccc5F)cn4C)cn3C)cn2C)cc1C(=O)NCCN1CCOCC1 [Compound B-44] | >32 µg/mL | ++ (++ = 4 < MIC < 12) | +++ (+++ = MIC ≦ 4) | ++ (++ = 4 < MIC < 12) | +++ (+++ = MIC ≦ 4) | +++ (+++ = MIC ≦ 4)
